# Tested on: male Std: Wistar rats
# Experiment: Pain test by plantar thermal stimuli (plantar test)
# Format: in vivo
# Details: Rattus norvegicus, 4 h, 50 μl of 0.03% (W/V) solution i.pl. into right hind-paw; 4 hours after administration; cut-off 25 seconds; read-out: % MPE (percent maximum possible effect, withdrawal latency)
# Description: Experiment 1: Pain Test by Plantar Thermal Stimuli (Plantar Test)
# In the present experiment, the analgesic effect of the compounds of the invention was evaluated by the measurements of withdrawal latency to noxious thermal stimuli, according to the methods of Hargreaves, et al., [Pain, 32, 77-88 (1988)] and Field, et al., [J. Pharmacol. Exp. Ther., 282, 1242-1246 (1997)].
# In detail, the experiment was carried out using male Std: Wistar rats (4 rats/group; body weight, 170-220 g) and a plantar test device (Model 7370, Ugo Basile) with infrared beam as a heat source. The rat was put into an experimental cage that is an acrylic box whose bottom is made of glass and was habituated therein. Then, the infrared beam was radiated to the plantar surface of right hind-paw thereof through the floor glass, and the withdrawal latency was measured every 5 minutes, 3 times. The intension of the infrared beam was adjusted so that the pre-drug administration latency was about 10 seconds. The cut-off time was set at 25 seconds in order to prevent a paw burn. The average of the latencies was calculated, and then it was defined as the value of the pre-drug administration latency of the test compound.
# Next day, 50 μl of each solution of the test compounds [the compounds of the invention, the compounds of the comparative Examples and capsaicin (Sigma, U.S.A.)] or 50 μl of vehicle solvent (reference) was given to a right hind-paw of the rat by intraplantar injection (i. pl.) using a micro-syringe. The test compound was dissolved in a saline solution containing 10% Tween 80 (Sigma, U.S.A) and 10% ethanol to give a 0.03% (W/V) solution. The saline solution containing 10% Tween 80 and 10% ethanol was used as reference. Four hours after i.pl. administration of each the test compound or the reference to the rats, the experiment mentioned above was carried out, and then the post-drug administration latency was measured. The analgesic effects thereof were calculated with the following formula, which was known as a percent maximum possible effect (% MPE). % MPE=[(the value of post-drug latency−the value of pre-drug latency)/(25*−the value of pre-drug latency)]×100 *: cut-off time
row,SMILES,change in vivo at 300 µg/mL [%]
1,"COc1cc(CC(=O)NC2CCC(C)CC2)ccc1O (centres unmarked) [Comparative Example 1, 2-(4-hydroxy-3-methoxyphenyl)-N-(4-methyl-cyclohexyl)acetamide, reference compound]",23.3
2,"COc1cc(CC(=O)NC2CCCCC2)ccc1O [Comparative Example 2, N-cyclohexyl-2-(4-hydroxy-3-methoxyphenyl)-acetamide, reference compound]",30.6
3,"CCCCCC1CCC(NC(=O)Cc2ccc(O)c(OC)c2)CC1 (centres unmarked) [Example 3, 2-(4-hydroxy-3-methoxyphenyl)-N-(4-pentyl-cyclohexyl)acetamide]",89.9
4,CCC(C)(C)C1CCC(NC(=O)Cc2ccc(O)c(OC)c2)CC1 (centres unmarked) [Example 4],56.6
5,COc1cc(CC(=O)NC2CCC(C3CCCCC3)CC2)ccc1O (centres unmarked) [Example 5],59.2
6,COc1cc(CC(=O)NC2CCC(c3ccccc3)CC2)ccc1O (centres unmarked) [Example 6],82.6
7,CCCC[C@H]1CC[C@@H](NC(=O)Cc2ccc(O)c(OC)c2)CC1 [Example 7],78.6
8,"CCCC1(CCC)CCC(NC(=O)Cc2ccc(O)c(OC)c2)CC1 [Example 9, N-(4,4-dipropylcyclohexyl)-2-(4-hydroxy-3-methoxyphenyl)acetamide]",64.7
9,"COc1cc(CC(=O)N[C@H]2CC[C@H](/C=C\C(C)C)CC2)ccc1O [Example 14, 2-(4-hydroxy-3-methoxyphenyl)-N-{trans-4-[(Z)-3-methyl-1-butenyl]cyclohexyl}acetamide]",100
10,COc1cc(CC(=O)N[C@H]2CC[C@H](/C=C\CC(C)C)CC2)ccc1O [Example 15],94.4
11,CCC/C=C\[C@H]1CC[C@H](NC(=O)Cc2ccc(O)c(OC)c2)CC1 [Example 17],74.9
12,COc1cc(CC(=O)N[C@H]2CC[C@H](/C=C\C3CC3)CC2)ccc1O [Example 18],80.5
13,C=C/C=C/[C@H]1CC[C@H](NC(=O)Cc2ccc(O)c(OC)c2)CC1 [Example 19],35.9
14,CCOC(=O)/C=C/[C@H]1CC[C@H](NC(=O)Cc2ccc(O)c(OC)c2)CC1 [Example 20],53.8
15,COc1cc(CC(=O)N[C@H]2CC[C@H](/C=C/C(C)=O)CC2)ccc1O [Example 21],50.3
16,COc1cc(CC(=O)N[C@H]2CC[C@H](/C=C\CC(F)(F)F)CC2)ccc1O [Example 23],77.9
17,COc1cc(CC(=O)N[C@H]2CC[C@H](C=C(C)C)CC2)ccc1O [Example 24],72.4
18,COc1cc(CC(=O)N[C@H]2CC[C@H](C=C3CCCC3)CC2)ccc1O [Example 25],98.3
19,CCCC[C@H]1CC[C@H](NC(=O)Cc2ccc(O)c(OC)c2)CC1 [Example 28],87.1
20,CCOC(=O)CC[C@H]1CC[C@H](NC(=O)Cc2ccc(O)c(OC)c2)CC1 [Example 29],45.8
21,CCCCC[C@H]1CC[C@H](NC(=O)Cc2ccc(O)c(OC)c2)CC1 [Example 30],71.3
22,CCC[C@H]1CC[C@H](NC(=O)Cc2ccc(O)c(OC)c2)CC1 [Example 31],54.3
23,COc1cc(CC(=O)N[C@H]2CC[C@H](CCC3CC3)CC2)ccc1O [Example 32],85.5
24,COc1cc(CC(=O)N[C@H]2CC[C@H](CC(C)C)CC2)ccc1O [Example 33],73.3
25,COc1cc(CC(=O)N[C@H]2CC[C@H](CC3CCCC3)CC2)ccc1O [Example 34],97.8
26,"CCCCO[C@H]1CC[C@H](NC(=O)Cc2ccc(O)c(OC)c2)CC1 [Example 35, N-(trans-4-butoxycyclohexyl)-2-(4-hydroxy-3-methoxyphenyl)acetamide]",42.8
27,COc1cc(CC(=O)N[C@H]2CC[C@H](OCCC(C)C)CC2)ccc1O [Example 37],49.9
28,COc1cc(CC(=O)N[C@H]2CC[C@H](OCCCC(F)(F)F)CC2)ccc1O [Example 38],57.6

row,SMILES,change in vivo at 300 µg/mL [%]
1,CCCCOC[C@H]1CC[C@H](NC(=O)Cc2ccc(O)c(OC)c2)CC1 [Example 39],39.6
2,"COc1cc(CC(=O)N[C@H]2CC[C@H](OC(=O)c3ccc(C)cc3)CC2)ccc1O [Example 40, 2-(4-hydroxy-3-methoxyphenyl)-N-[trans-4-(4-methylphenylcarbonyloxy)cyclohexyl]acetamide]",48.3
3,"COc1cc(CC(=O)N[C@H]2CC[C@@H](CC=C(C)C)CC2)ccc1O [Example 47, 2-(4-hydroxy-3-methoxyphenyl)-N-[cis-4-(3-methyl-2-butenyl)cyclohexyl]acetamide]",69
4,"COc1cc(CC(=O)N[C@H]2CC[C@@H](CCC(C)C)CC2)ccc1O [Example 48, 2-(4-hydroxy-3-methoxyphenyl)-N-[cis-4-(3-methylbutyl)cyclohexyl]acetamide]",79.6
5,"CC/C=C\[C@H]1CC[C@@H](NC(=O)Cc2ccc(O)c(OC)c2)CC1 [Example 49, N-{cis-4-[(Z)-1-butenyl]cyclohexyl}-2-(4-hydroxy-3-methoxyphenyl)acetamide]",97
6,C/C=C\[C@H]1CC[C@@H](NC(=O)Cc2ccc(O)c(OC)c2)CC1 [Example 50],48.2
7,COc1cc(CC(=O)N[C@H]2CC[C@@H](/C=C\CC(C)C)CC2)ccc1O [Example 51],96.4
8,"CC/C=C/[C@H]1CC[C@H](NC(=O)Cc2ccc(O)c(OC)c2)CC1 [Example 52, N-{trans-4-[(E)-1-butenyl]cyclohexyl}-2-(4-hydroxy-3-methoxyphenyl)acetamide]",91.5
9,C/C=C/[C@H]1CC[C@H](NC(=O)Cc2ccc(O)c(OC)c2)CC1 [Example 53],47.1
10,CCC/C=C/[C@H]1CC[C@H](NC(=O)Cc2ccc(O)c(OC)c2)CC1 [Example 54],82.5
11,COc1cc(CC(=O)N[C@H]2CC[C@H](/C=C/C3CC3)CC2)ccc1O [Example 55],55.4
12,COc1cc(CC(=O)N[C@H]2CC[C@H](/C=C/CC(C)C)CC2)ccc1O [Example 56],70.2
13,COc1cc(CC(=O)N[C@H]2CC[C@H](/C=C/C3CCC3)CC2)ccc1O [Example 57],54.2
14,COc1cc(CC(=O)N[C@H]2CC[C@H](/C=C/CC3CC3)CC2)ccc1O [Example 58],48.6
15,"COc1cc(CC(=O)N[C@H]2CC[C@H](CCC3CCC3)CC2)ccc1O [Example 59, N-[trans-4-(2-cyclobutylethyl)cyclohexyl]-2-(4-hydroxy-3-methoxyphenyl)acetamide]",74.7
16,"CCC/C=C/[C@H]1CC[C@@H](NC(=O)Cc2ccc(O)c(OC)c2)CC1 [Example 60, 2-(4-hydroxy-3-methoxyphenyl)-N-{cis-4-[(E)-1-pentenyl]cyclohexyl}acetamide]",91.4
17,C/C=C/[C@H]1CC[C@@H](NC(=O)Cc2ccc(O)c(OC)c2)CC1 [Example 61],49.4
18,CC/C=C/[C@H]1CC[C@@H](NC(=O)Cc2ccc(O)c(OC)c2)CC1 [Example 62],86.3
19,COc1cc(CC(=O)N[C@H]2CC[C@@H](/C=C/C(C)C)CC2)ccc1O [Example 63],96.4
20,COc1cc(CC(=O)N[C@H]2CC[C@@H](/C=C/C3CC3)CC2)ccc1O [Example 64],71.1
21,COc1cc(CC(=O)N[C@H]2CC[C@@H](/C=C/CC(C)C)CC2)ccc1O [Example 65],100
22,COc1cc(CC(=O)N[C@H]2CC[C@@H](/C=C/C3CCC3)CC2)ccc1O [Example 66],88
23,COc1cc(CC(=O)N[C@H]2CC[C@@H](/C=C/CC3CC3)CC2)ccc1O [Example 67],55.6
24,"CCC[C@H]1CC[C@@H](NC(=O)Cc2ccc(O)c(OC)c2)CC1 [Example 68, 2-(4-hydroxy-3-methoxyphenyl)-N-(cis-4-propylcyclohexyl)acetamide]",81.6
25,COc1cc(CC(=O)N[C@H]2CC[C@@H](CCCC(C)C)CC2)ccc1O [Example 69],79.9
26,COc1cc(CC(=O)N[C@H]2CC[C@@H](CCC3CCC3)CC2)ccc1O [Example 70],92.6
27,COc1cc(CC(=O)N[C@H]2CC[C@@H](CCCC3CC3)CC2)ccc1O [Example 71],87.9

# Same assay, conditions: Rattus norvegicus; 50 μl of 0.03% (W/V) solution i.pl. into right hind-paw; 4 hours after administration; cut-off 25 seconds; read-out: % MPE (percent maximum possible effect, withdrawal latency)
row,SMILES,change in vivo at 300 µg/mL [%]
1,"COc1cc(CC(=O)N[C@H]2CC[C@H](OC(=O)Cc3ccccc3)CC2)ccc1O [Example 41, N-[trans-4-(benzylcarbonyloxy)cyclohexyl]-2-(4-hydroxy-3-methoxyphenyl)acetamide]",45.8

# From patent US7767854B2, “N-substituted phenylacetamide derivative and pharmaceutical composition containing the same” (Dainippon Sumitomo Pharma Co., Ltd., priority 2005, dated 2010)
